For data set [1] the following is noted: active metabolite; cited from earlier work.
In a further data set the test system is rats. Nature of the data set: Drug self-administration and water-reinforced responding in rats (earlier studies). The data set is classed as in vivo, rat. How it is done: Other work has extended the “anti-addictive” effect of 18-MC to oral intake of ethanol. In all cases, these effects last for at least 24 hours. […] Unlike 18-MC, ibogaine and many other iboga alkaloid congeners (approximately 30 tested) decrease responding for water as well as for drugs. And it was precisely this unique specificity that led to development and study of 18-MC.

The source of these data is US8993559B2, “Use of ibogamine congeners for treating obesity” (Albany Medical College, priority 2008, dated 2015).

As to `COC(=O)[C@@]12C[C@H]3C[C@H](CCO)[C@@H]1N(CCc1c2[nH]c2ccccc12)C3` [18-hydroxycoronaridine], the “presence in plasma as metabolite of 18-MC” value in data set [1] was “present in plasma in low concentrations”. Take ibogaine [reference compound]: in the data set on rats (rat, in vivo), the responding for drugs entry was “decrease”. Moreover, the “responding for water (non-drug reinforcer)” value with rats (same doses that decrease drug self-administration) is on record as “decrease”.
